Read-outs that look alike come from different tables or passages of the source.
Tested on: bruise
[1] = lower concentrations within 2% to 20% by weight

For CCC(C)O (stereo not drawn) [2-Butanol], the bruise resolution (2-Butanol alone in the topical formulation, without penetrant) was “would not provide the bruise resolution”, the “side-effects (pain, itching, redness, exfoliation)” value (4% -12% 2-Butanol by weight) was “resolved” and the bruise resolution (10% 2-Butanol by weight of topical formulation) was “very good bruise resolution”. For the same compound, the “frequency and severity of side-effects, such as pain, itching, redness and exfoliation” value (higher concentrations within 2% to 20% by weight) was “increased”, the “efficacy of bruise resolution” value [1] was “decreased” and the “frequency and severity of side-effects” value [1] was “decreased”.
